Measurements: patent publication US7192939B2, “Pestalotiopsis microsporia isolates and compounds derived therefrom” (Montana State University, priority 2002, dated 2007)
Values after ≈ are worked out from the molar mass of the structure shown.

Tests used:
[1] = ESR superoxide scavenging (hypoxanthine/xanthine oxidase, EMPO spin trap); format: biochemical; conditions: superoxide generated by hypoxanthine/xanthine oxidase, read-out: concentration needed to reduce the free radical O2−• (ESR signal) by 50%
Protocol: All EPR spectra were recorded on a Bruker model ESP 300E spectrometer, X-band operating at a microwave frequency 9.787 gHz, a microwave power of 10 mW, a modulation frequency of 100.0 kHz, and a modulation amplitude of 0.367 mT. The magnetic field range was 334±80 mT, a time constant of 40.96 ms, a receiver gain of 2×10^4 and a magnetic fieldsweep rate of 0.48 mT/s. […] The superoxide O2 ^−• was generated by the action of hypoxanthine or xanthine on water and oxygen through the catalysis of xanthine oxidase. […] All enzymes and their respective substrates were purchased from Sigma Chemical Co., while other reagents were acquired from Calbiochem, and Life-Tech. The reaction mixture was transferred to an EPR flat tube for signal detection. Also placed in the tube was a spin trap compound-2-ethoxycarbonyl-2-methyl-3,4-dihydro-2H-pyrrole-1-oxide (EMPO) to trap the superoxide. […] Test compounds were added to the tube and their effects on signal reduction (antioxidant activity) were monitored. Because of the water insolubility of (1) it was necessary to dissolve it first into a small amount of methanol and then add it to the reaction mixture. […]
The superoxide was generated in our experimental set-up by the action of hypoxanthine on water and oxygen via the catalysis of xanthine oxidase. […] Simultaneously, EPR spectra are recorded of the free electrons associated with the free radicals. […]

Solubility in water = format: physicochemical
Sclerotinia sclerotiorum = assay: Antimycotic activity, minimum inhibitory concentration in potato dextrose broth; format: cell-based
Protocol: (§1) The minimum inhibitory concentration of (1) required to give a 100% reduction of growth of a test fungus over a course of two days was determined by dissolving (1) in 1 ml of potato dextrose broth (PDB). An agar plug, 1 cm in dia, containing the test fungus was then added to the broth and the organisms incubated at 23° C. for 48 hr. At that time the plate containing the fungi was examined visually for growth and the concentration of compound reducing growth by 100% was recorded. Fungi tested were each plant pathogenic and included an oomycete—Pythium ultimum, an ascomycete—Sclerotinia sclerotiorum, and a basidiomycete—Rhizoctonia solani.

Rhizoctonia solani = assay: as above; format: cell-based
Protocol: as §1

Pythium ultimum = assay: as above; format: cell-based
Protocol: as §1
Isopestacin (1) is antimycotic, with total inhibition of Pythium ultimum, a plant pathogenic oomycete, at 40 μg/ml at 48 hr.
Pestacin was also analyzed for antifungal activity using previously described methodology. […] This level of activity is slightly greater than that previously observed for isopestacin.

[2] = ESR hydroxyl free radical scavenging (Fenton reaction, DEPMPO spin trap); format: biochemical; conditions: 0.18 mM OH• chemically generated (Fenton), read-out: concentration required to reduce hydroxyl free radical by 50%
Protocol: EPR techniques used in this work are primarily those reported by Sheu et al., 2000 and Zhu and Fung, 2000. All EPR spectra were recorded on a Bruker model ESP 300E spectrometer, X-band operating at a microwave frequency 9.787 gHz, a microwave power of 10 mW, a modulation frequency of 100.0 kHz, and a modulation amplitude of 0.367 mT. The magnetic field range was 334±80 mT, a time constant of 40.96 ms, a receiver gain of 2×10^4 and a magnetic fieldsweep rate of 0.48 mT/s. The magnetic field spacings are similar to those reported by Zhang et al (2000). The superoxide O2 ^−• was generated by the action of hypoxanthine or xanthine on water and oxygen through the catalysis of xanthine oxidase. The hydroxyl free radical OH^• is generated by the well-known Fenton reaction: Fe^2++H2O2=Fe^3++OH^−+OH^•, where 0.09 mM ferrous sulfate and 0.18 mM H2O2 were used. All enzymes and their respective substrates were purchased from Sigma Chemical Co., while other reagents were acquired from Calbiochem, and Life-Tech. […] Test compounds were added to the tube and their effects on signal reduction (antioxidant activity) were monitored. […]
Testing confirms that Isopestacin (1) indeed has antioxidant activity as determined by ESR measurements described in the experimental section. […] Simultaneously, EPR spectra are recorded of the free electrons associated with the free radicals. […]

[3] = Lipid free radical reduction; format: biochemical
Description: Testing confirms that Isopestacin (1) indeed has antioxidant activity as determined by ESR measurements described in the experimental section. The compound is able to scavenge superoxide O2^−• and OH^• radicals in solution. The superoxide was generated in our experimental set-up by the action of hypoxanthine on water and oxygen via the catalysis of xanthine oxidase. On the other hand OH^• was generated via the Fenton reaction of hydrogen peroxide on ferrous iron. Simultaneously, EPR spectra are recorded of the free electrons associated with the free radicals. […] It should be noted that since superoxide was generated via the xanthine oxidase reaction it was no possible to accurately calculate the exact molar concentration of O2^−• in these reactions. However, (1) is extremely capable of scavenging the hydroxyl free radical (OH^•) with 0.22 mM required to reduce this free radical (0.18 mM OH^•—chemically generated) by 50%. This is an important biological and chemical property of (1) since OH^• is believed to be more detrimental to cell death directly than O2^−•. On the other hand, (1) has no effect in reducing the lipid free radical LOO^−•.

[4] = Total oxyradical scavenging capacity (TOSC) assay; format: biochemical; conditions: for IC50: TOSC assay, ABAP initiator, KMBA, 37° C., ethylene by GC, read-out: solution concentration required to reduce the effects of the free radical initiator by 50%
Description: The similarity of pestacin to isopestacin, described herein and in Strobel, G. A.; Ford, E.; Worapong, J.; Harper, J. K.; Arif, A. M.; Grant, D. M.; Fung, P.; Chau, R. M. W. Phytochem. […] Pestacin was thus analyzed using the total oxyradical scavenging capacity (TOSC) assay. This analysis assesses a compounds ability to inhibit a free radical initiator's oxidation of α-Keto-γ-methiolbutyric acid to release ethylene gas. Compounds with antioxidant properties thus decrease the production of ethylene gas, as measured gas chromatographically. Pestacin required a 1.7±0.1 mM solution to reduce the effects of the free radical initiator by 50%. In contrast, the water-soluble vitamin E derivative, troxol, required an 18.8±0.9 mM solution to exert the same effect. Pestacin, therefor, appears to be an extremely effective antioxidant as measured by this assay. A mechanism for antioxidant activity may also be proposed based on the structure of pestacin.
Antioxidant activity of (1) was assessed by dissolving 8.7 mg of (1) in 200 μL of DMSO then diluting the solution 1:10, 1:100, and 1:1000 in DMSO. A 10 μL volume of each sample was then combined in a 10 mL vial with 100 μL of 100 mM potassium phosphate buffer, 100 μL of 2 mM α-keto-γ-methiolbuthric acid (KMBA), and 690 μL of H2O. Control samples were also prepared containing 100 μL of 100 mM potassium phosphate buffer, 100 μL of 2 mM KMBA, and 700 μL of H2O. The sealed samples were then incubated at 37° C. for 5 minutes followed by injection of 100 μL of the free radical initiator, 2,2′-azobis(2-methylpropionamidine) (ABAP). Peroxy radicals, generated by thermal homolysis of ABAP at 37° C., then oxidized KMBA to produce ethylene gas. Ethylene production was monitored by gas chromatography of 1 mL samples removed every 12 minutes over a 96-minute period. Chromatographic analysis was performed on a Hewlett-Packard 5890A gas chromatograph equipped with a Supelco 6-foot Porpak Q packed column, a flame ionization detector, and employing helium as a carrier gas (30 mL/min). […]

IC50 [1] | solubility in water (Solubility in water) | IC50 [2] | MIC (Pythium ultimum; Globisporangium ultimum, previously described methodology, read-out: minimum inhibitory concentration against Pythium ultimum) | IC50 [4] | Structure (SMILES) | inhibitory effect on Sclerotinia sclerotiorum (Sclerotinia sclerotiorum) | inhibitory effect on Rhizoctonia solani (Rhizoctonia solani) | concentration giving total inhibition of Pythium ultimum (Pythium ultimum; at 48 hr, 100% reduction of growth) | effect in reducing the lipid free radical LOO−• [3] | antioxidant activity relative to troxol ([4]; pestacin vs vitamin E derivative troxol)
≥ 185 µM | very low solubility in water | 220 µM |  |  | Cc1cc(O)c2c(c1)C(c1c(O)cccc1O)OC2=O (racemic) [Isopestacin, 1-oxo-3-(9,13-dihydroxybenzene)-5-methyl-7-hydroxy-1,3-dihydrobenzofuranone] | no inhibitory effect | no inhibitory effect | 40 µg/mL | no effect | 
 |  |  | ~10 µg/mL (≈ 38.7 µM) | 1700 ± 100 µM | Cc1cc(O)c2c(c1)COC2c1c(O)cccc1O (racemic) [Pestacin] |  |  |  |  | 11 times
 |  |  |  | 18800 ± 900 µM | Cc1c(C)c2c(c(C)c1O)CCC(C)(C(=O)O)O2 (centres unmarked) [troxol, reference compound] |  |  |  |  | 
